Source: article PMC4503722, “Novel Phenotypic Outcomes Identified for a Public Collection of Approved Drugs from a Publicly Accessible Panel of Assays” (PLoS ONE, 2015)
Like-named read-outs stand apart in the source and are kept apart here.

Tests used:
INS-1E cells = test: cells; assay type: cell-based, rat;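 note: secreted insulin quantified by homogeneous immunoassay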
[1] = system: endothelial tube formation in co-cultures of ECFCs and ADSCs treated with VEGF; test: cells; assay type: cell-based, human
hp70S6K1 (RPS6KB1) = target: T1, hp70S6K1 (RPS6KB1) (Homo sapiens, UniProt P23443); test: Cerep LANCE kinase assay hp70S6K1 (S1 assay 31); assay type: biochemical; conditions: assay number 31
T1 construct: purchased Cerep (LANCE kinase assay platform, contract assay)

hFLT3 = target: T2, hFLT3 (Homo sapiens, UniProt P36888); test: Cerep LANCE kinase assay hFLT3 (S1 assay 35); assay type: biochemical; conditions: assay number 35
T2 construct: purchased Cerep (LANCE kinase assay platform, contract assay)

hGSK3b = target: T3, hGSK3b (Homo sapiens, UniProt P49841); test: Cerep LANCE kinase assay hGSK3b (S1 assay 34); assay type: biochemical; conditions: assay number 34
T3 construct: purchased Cerep (LANCE kinase assay platform, contract assay)

HeLa cells = test: cells; assay type: cell-based
NCI-H716 cells = test: cells; assay type: cell-based, Human
[2] = system: ECFC/ADSC co-culture cell nuclei number
hJAK2 = target: T4, hJAK2 (Homo sapiens, UniProt O60674); test: Cerep LANCE kinase assay hJAK2 (S1 assay 33); assay type: biochemical; conditions: assay number 33
T4 construct: purchased Cerep (LANCE kinase assay platform, contract assay)

STC-1 cell line = assay type: cell-based, mouse
hKDR = target: T5, hKDR (Homo sapiens, UniProt P35968); test: Cerep LANCE kinase assay hKDR (S1 assay 32); assay type: biochemical; conditions: assay number 32
T5 construct: purchased Cerep (LANCE kinase assay platform, contract assay)

SW480 = test: cells; assay type: cell-based
[3] = system: HCT116 cells treated with a GSK3β inhibitor; test: cells; assay type: cell-based
HT-29 = test: cells; assay type: cell-based
SNU-C1 = test: cells; assay type: cell-based
DLD-1 = test: cells; assay type: cell-based
Colo320 = test: cells; assay type: cell-based
RKO = test: cells; assay type: cell-based
HCT116 = test: cells; assay type: cell-based

T1 sequence (P23443 whole entry): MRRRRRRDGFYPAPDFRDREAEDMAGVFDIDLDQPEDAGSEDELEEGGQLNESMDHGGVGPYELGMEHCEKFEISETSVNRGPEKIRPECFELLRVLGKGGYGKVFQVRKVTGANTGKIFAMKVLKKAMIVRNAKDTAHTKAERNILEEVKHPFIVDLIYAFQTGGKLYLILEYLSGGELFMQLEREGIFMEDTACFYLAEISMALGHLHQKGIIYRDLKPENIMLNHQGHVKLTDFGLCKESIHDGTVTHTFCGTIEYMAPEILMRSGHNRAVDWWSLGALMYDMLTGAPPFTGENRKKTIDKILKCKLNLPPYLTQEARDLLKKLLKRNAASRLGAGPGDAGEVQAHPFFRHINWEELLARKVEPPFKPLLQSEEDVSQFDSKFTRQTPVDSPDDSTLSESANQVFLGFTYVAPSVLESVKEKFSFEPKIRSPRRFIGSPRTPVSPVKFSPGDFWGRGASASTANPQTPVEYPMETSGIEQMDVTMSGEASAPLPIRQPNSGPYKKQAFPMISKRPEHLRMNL
T5 sequence (P35968 20-1356): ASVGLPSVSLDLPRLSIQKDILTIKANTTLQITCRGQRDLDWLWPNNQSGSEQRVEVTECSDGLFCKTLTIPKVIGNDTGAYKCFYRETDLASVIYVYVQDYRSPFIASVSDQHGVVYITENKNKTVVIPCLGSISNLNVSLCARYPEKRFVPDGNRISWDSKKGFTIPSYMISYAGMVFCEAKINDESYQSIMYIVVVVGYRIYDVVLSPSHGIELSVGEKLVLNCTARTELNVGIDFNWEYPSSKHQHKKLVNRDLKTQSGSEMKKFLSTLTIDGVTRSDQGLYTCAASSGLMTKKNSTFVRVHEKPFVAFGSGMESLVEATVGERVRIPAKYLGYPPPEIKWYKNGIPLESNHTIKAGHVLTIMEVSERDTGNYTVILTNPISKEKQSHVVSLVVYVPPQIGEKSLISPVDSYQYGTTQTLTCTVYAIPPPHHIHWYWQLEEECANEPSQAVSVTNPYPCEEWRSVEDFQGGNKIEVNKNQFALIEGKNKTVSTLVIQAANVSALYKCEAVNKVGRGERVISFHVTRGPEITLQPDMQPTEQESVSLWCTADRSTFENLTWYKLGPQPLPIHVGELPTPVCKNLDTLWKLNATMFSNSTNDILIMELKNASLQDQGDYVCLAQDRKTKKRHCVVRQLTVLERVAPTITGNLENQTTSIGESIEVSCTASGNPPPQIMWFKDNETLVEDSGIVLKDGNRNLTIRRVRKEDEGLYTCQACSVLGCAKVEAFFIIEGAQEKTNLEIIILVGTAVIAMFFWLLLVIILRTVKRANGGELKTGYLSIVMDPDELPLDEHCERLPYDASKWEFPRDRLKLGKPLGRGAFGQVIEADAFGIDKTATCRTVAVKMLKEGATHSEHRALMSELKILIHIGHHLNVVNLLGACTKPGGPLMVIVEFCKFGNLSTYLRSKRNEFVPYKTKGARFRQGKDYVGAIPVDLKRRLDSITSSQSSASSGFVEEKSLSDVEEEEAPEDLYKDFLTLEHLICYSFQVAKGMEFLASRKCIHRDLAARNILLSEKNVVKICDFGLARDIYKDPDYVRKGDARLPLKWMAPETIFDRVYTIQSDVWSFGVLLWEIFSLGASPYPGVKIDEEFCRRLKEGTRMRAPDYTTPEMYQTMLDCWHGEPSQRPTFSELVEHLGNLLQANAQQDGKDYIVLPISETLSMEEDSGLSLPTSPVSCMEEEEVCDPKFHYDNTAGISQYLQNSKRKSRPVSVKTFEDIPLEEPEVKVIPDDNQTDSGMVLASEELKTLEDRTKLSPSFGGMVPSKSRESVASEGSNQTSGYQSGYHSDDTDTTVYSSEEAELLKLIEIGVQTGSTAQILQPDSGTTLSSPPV
T3 sequence (P49841 whole entry): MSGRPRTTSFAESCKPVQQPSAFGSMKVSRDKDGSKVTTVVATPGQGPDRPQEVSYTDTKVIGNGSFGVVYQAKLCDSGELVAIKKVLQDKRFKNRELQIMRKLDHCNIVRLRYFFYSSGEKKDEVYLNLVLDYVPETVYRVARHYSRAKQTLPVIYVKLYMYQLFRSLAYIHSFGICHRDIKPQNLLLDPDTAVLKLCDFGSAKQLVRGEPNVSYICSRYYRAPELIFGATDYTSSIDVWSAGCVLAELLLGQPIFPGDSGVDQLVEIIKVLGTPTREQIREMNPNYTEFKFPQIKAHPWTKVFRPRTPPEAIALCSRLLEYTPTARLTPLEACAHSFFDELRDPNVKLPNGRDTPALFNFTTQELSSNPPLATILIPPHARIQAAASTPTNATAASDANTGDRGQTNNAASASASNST
T4 sequence (O60674 whole entry): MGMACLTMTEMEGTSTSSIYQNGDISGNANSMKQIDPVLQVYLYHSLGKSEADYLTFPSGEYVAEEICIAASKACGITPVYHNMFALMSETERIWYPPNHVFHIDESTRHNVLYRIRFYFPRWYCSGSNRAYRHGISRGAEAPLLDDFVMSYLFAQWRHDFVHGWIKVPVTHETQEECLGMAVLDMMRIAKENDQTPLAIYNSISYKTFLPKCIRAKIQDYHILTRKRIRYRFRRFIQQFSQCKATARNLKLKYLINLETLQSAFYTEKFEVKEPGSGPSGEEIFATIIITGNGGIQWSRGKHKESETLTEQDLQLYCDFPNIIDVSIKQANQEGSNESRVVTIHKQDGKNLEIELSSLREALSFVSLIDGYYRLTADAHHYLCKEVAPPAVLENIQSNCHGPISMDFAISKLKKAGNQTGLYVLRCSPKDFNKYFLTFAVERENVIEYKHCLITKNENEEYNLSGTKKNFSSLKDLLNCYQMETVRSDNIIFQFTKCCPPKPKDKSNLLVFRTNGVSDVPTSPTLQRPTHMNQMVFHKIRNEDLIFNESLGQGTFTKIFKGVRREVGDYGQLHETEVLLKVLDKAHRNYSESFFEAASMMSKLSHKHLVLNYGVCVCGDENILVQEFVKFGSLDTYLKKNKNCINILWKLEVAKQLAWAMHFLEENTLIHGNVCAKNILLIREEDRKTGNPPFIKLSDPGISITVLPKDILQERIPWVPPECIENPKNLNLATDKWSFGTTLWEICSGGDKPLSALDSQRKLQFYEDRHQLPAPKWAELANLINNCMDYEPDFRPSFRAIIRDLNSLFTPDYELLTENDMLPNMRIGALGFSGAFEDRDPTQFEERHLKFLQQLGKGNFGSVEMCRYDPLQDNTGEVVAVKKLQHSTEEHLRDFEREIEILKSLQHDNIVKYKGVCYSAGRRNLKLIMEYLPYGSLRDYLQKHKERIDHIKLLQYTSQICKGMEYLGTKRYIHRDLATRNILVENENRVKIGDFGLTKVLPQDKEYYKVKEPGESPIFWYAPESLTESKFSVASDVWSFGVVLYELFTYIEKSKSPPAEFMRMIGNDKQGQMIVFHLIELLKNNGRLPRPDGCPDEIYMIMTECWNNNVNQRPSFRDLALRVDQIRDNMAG
T2 sequence (P36888 27-993): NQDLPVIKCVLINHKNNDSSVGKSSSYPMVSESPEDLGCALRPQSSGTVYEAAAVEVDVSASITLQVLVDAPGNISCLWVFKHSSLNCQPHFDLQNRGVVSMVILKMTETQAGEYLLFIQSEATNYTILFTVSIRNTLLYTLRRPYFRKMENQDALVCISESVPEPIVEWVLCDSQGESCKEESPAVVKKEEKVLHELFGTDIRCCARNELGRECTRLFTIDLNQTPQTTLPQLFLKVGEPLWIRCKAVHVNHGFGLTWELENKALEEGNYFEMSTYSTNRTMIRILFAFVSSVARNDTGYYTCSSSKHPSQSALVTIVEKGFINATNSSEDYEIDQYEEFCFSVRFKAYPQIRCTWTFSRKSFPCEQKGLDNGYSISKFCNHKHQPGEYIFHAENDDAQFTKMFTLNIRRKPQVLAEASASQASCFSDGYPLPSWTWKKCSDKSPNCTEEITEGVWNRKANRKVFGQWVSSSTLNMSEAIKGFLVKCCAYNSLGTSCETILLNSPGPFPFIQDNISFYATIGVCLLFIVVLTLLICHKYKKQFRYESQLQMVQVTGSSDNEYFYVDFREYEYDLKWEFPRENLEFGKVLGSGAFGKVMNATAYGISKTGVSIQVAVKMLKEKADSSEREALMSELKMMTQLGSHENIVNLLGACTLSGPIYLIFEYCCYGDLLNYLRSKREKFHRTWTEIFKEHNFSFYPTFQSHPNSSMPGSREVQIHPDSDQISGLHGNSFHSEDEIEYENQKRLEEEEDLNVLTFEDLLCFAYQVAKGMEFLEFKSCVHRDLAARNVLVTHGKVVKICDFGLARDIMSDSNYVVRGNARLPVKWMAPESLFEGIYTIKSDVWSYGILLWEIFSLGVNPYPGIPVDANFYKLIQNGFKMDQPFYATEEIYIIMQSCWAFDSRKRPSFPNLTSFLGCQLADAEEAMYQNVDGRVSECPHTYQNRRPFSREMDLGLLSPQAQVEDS

Structure (SMILES)	5mMGluc_INS1E SecretionMod IC50/EC50 (INS-1E cells; assay number 8, 5 mM glucose)	VEGF_ADSC\ECFC Angio CD31 TubeArea IC50/EC50 [1]	hNCI-H716 GLP1 Secretion IC50/EC50 (NCI-H716 cells; assay number 12)	VEGF_ADSC\ECFC Angio Hoechst NucArea IC50/EC50 [2]	mSTC-1 GLP1 Secretion IC50/EC50 (STC-1 cell line; assay number 13)	other results
CCCCCCCCCCCCCCCCCCNC(=O)OC1CCN(C(=O)OC[C@H](COC(=O)N(Cc2cccc[n+]2CC)C(=O)c2ccccc2OC)OC)CC1.[Cl-] [NCGC00183020-01]	21.7337 µM	1.4957 µM	9.522 µM	> 10 µM	13.8183 µM	hp70S6K1 LANCE IC50/EC50 (hp70S6K1 (RPS6KB1)): > 20 µM; hFLT3 LANCE IC50/EC50 (hFLT3): > 20 µM; hGSK3b LANCE IC50/EC50 (hGSK3b): > 20 µM; Hela CellCycMod PI 2N IC50/EC50 (HeLa cells; assay number 14, 2N): > 10 µM; Hela CellCycMod PI 4N IC50/EC50 (HeLa cells; assay number 16, 4N): > 10 µM; Hela CellCycMod PI MI IC50/EC50 (HeLa cells; assay number 17, MI): > 10 µM; Hela CellCycMod PI Cell Number IC50/EC50 (HeLa cells; assay number 18, cell number): 6.1389 µM; hJAK2 LANCE IC50/EC50 (hJAK2): > 20 µM; hKDR LANCE IC50/EC50 (hKDR): > 20 µM
CC(COc1ccccc1)NN (stereo not drawn) [NCGC00183828-01]	> 33.33 µM	> 10 µM	> 40 µM	> 10 µM	27.1817 µM	
Cn1cc([S+](C)[O-])c(=O)c2ccc(F)cc21 (stereo not drawn) [NCGC00183849-01]	> 33.33 µM	> 10 µM	> 40 µM	> 10 µM	> 40 µM	
CN1CCN(CCCN2c3ccccc3Sc3ccc(C(F)(F)F)cc32)CC1.Cl.Cl [NCGC00186653-01]						IC50/EC50, Basal_Viability ATP SW480 (assay number 24) (SW480): 2.723 µM; IC50/EC50, GSK3b inh pretreated_Viability ATP HCT116 (assay number 26) [3]: 3.234 µM; IC50/EC50, Basal_Viability ATP HT-29 (assay number 28) (HT-29): 2.8136 µM; IC50/EC50, VEGF_ADSC\ECFC Angio CD31 TubeArea (assay number 2) [1]: > 10 µM; IC50/EC50, Basal_Viability ATP SNU-C1 (assay number 30) (SNU-C1): 2.6302 µM; IC50/EC50, hNCI-H716 GLP1 Secretion (assay number 12) (NCI-H716 cells): > 40 µM; IC50/EC50, Basal_Viability ATP DLD-1 (assay number 23) (DLD-1): 7.3544 µM; IC50/EC50, VEGF_ADSC\ECFC Angio Hoechst NucArea (assay number 3) [2]: > 10 µM; IC50/EC50, Basal_Viability ATP Colo 320 (assay number 27) (Colo320): 2.3611 µM; IC50/EC50, Basal_Viability ATP RKO (assay number 29) (RKO): 0.5653 µM; IC50/EC50, mSTC-1 GLP1 Secretion (assay number 13) (STC-1 cell line): > 40 µM; IC50/EC50, Basal_Viability ATP HCT116 (assay number 25) (HCT116): 7.225 µM
COC(=O)C(Cl)C(=O)OC [NCGC00249607-02]	> 33.33 µM	> 10 µM	> 40 µM	> 10 µM	8.3651 µM	
NC(=O)C1(N2CCCCC2)CCN(CCCN2c3ccccc3CCc3ccc(Cl)cc32)CC1 [NCGC00253595-01]	10.0823 µM	3.4001 µM	18.348 µM	> 10 µM	> 40 µM	
Cc1c(N)cccc1C(F)(F)F [NCGC00253636-01]	> 33.33 µM	> 10 µM	> 40 µM	> 10 µM	> 40 µM	
Fc1cc(Br)ccc1CBr [NCGC00253679-01]	> 33.33 µM		> 40 µM		> 40 µM	
O=C(CBr)Nc1ccc(Cl)cc1C(=O)c1ccccc1F [NCGC00253724-01]	> 33.33 µM	> 10 µM	> 40 µM	> 10 µM	> 40 µM	
CC(C)CCCC(C)NCCC(C)C (stereo not drawn) [NCGC00261980-01]	> 33.33 µM	> 10 µM	> 40 µM	> 10 µM	> 40 µM	
CN1CCCC(CC2c3ccccc3Sc3ccccc32)C1.Cl (stereo not drawn) [NCGC00273481-01]		8.6842 µM		> 10 µM		Basal_Viability ATP SW480 IC50/EC50 (SW480): 4.7038 µM; GSK3b inh pretreated_Viability ATP HCT116 IC50/EC50 [3]: 8.6816 µM; Basal_Viability ATP HT-29 IC50/EC50 (HT-29): 6.4328 µM; 5mMGluc_INS1E SecretionMod IC50/EC50 (INS-1E cells): > 11.11 µM; Basal_Viability ATP SNU-C1 IC50/EC50 (SNU-C1): 15.0863 µM; Hela CellCycMod PI 2N IC50/EC50 (HeLa cells): > 10 µM; Hela CellCycMod PI 4N IC50/EC50 (HeLa cells): > 10 µM; Hela CellCycMod PI Cell Number IC50/EC50 (HeLa cells): > 10 µM; Hela CellCycMod PI MI IC50/EC50 (HeLa cells): > 10 µM; hNCI-H716 GLP1 Secretion IC50/EC50 (NCI-H716 cells): > 40 µM; Basal_Viability ATP DLD-1 IC50/EC50 (DLD-1): > 20 µM; Basal_Viability ATP Colo 320 IC50/EC50 (Colo320): > 20 µM; Basal_Viability ATP RKO IC50/EC50 (RKO): 3.4891 µM; mSTC-1 GLP1 Secretion IC50/EC50 (STC-1 cell line): > 40 µM; Basal_Viability ATP HCT116 IC50/EC50 (HCT116): > 20 µM
